Data reported in patent US20240426807A1, “SCREENING SYSTEM” (Givaudan SA, priority 2021, published 2024).
“Also recorded” adds a separate entry of the source.

Target: T1, OR5AN1 (Homo sapiens, UniProt Q8NGI8)
T1 construct: expressed in transfected cells
T1 sequence (Q8NGI8 1-311): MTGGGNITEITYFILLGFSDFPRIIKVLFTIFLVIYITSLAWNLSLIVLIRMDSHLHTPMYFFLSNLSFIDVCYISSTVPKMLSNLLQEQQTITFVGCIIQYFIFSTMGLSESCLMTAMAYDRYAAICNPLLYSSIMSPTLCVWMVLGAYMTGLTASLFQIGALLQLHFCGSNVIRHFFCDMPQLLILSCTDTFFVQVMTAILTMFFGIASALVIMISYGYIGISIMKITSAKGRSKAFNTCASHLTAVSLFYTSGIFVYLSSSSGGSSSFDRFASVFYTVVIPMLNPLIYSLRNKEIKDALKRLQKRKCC
Assay: Ligand-induced blasticidin resistance, OR5AN1 cells (pGL4.29-CRE-BLAST-OR)
Type: cell-based
Source text: To generate a vector allowing positive selection of cell clones with a functional expression of a specific OR gene, a blasticidin resistance gene was placed downstream of SEQ ID NO: 4. The pGL4.29-CRE-Puro-OR vector generated as described in Example 1 was digested with BgIII and FseI to remove the comprised basal promoter and the complete puromycin resistance gene. The removed basal promoter sequence was amplified with the primers […] (SEQ ID NO: 28), […] (SEQ ID NO: 63), and the blasticidin S deaminase (bsd, SEQ ID NO: 64) encoding sequence was amplified by PCR using the primers […] (SEQ ID NO: 66) […] (SEQ ID NO: 67). The two overlapping PCR products were joined by fusion PCR using primers […] (SEQ ID NO: 28) and […] (SEQ ID NO: 68). The resulting DNA fragment was digested with BgIII/FseI and ligated into the digested vector to generate pGL4.29-CRE-Blast-OR.
This vector was used to generate stable cell lines as described in Example 1.
Stable clones containing a stable insertion of the pGL4.29-CRE-BLAST-OR construct with the receptor OR5AN1 (NCBI Genbank Gene ID: 390195) were then plated at a density of 3000 cells/per well in 100 μl Dubelcco's Modified Eagle medium (DMEM) in polyethyleneimide-coated, white 96 well microtiter plates with a transparent bottom. After cells were allowed to adhere for 24 h, 50 μl of medium containing different odorants (musk ketone or ethyl vanillin at 40 μM) was added to each well resulting in an odorant concentration of 13.3 μM. 6 h after odorant addition, 50 μl of medium containing blasticidin was added to reach a final concentration of 0.5-256 μg/ml in 10 two-fold dilution steps (day 1 of selection). This step further diluted the odorant to 10 μM. On day 4 of the selection (72 h after blasticidin addition), medium from each well was removed completely, 100 μl PrestoBlue® cell viability reagent (ThermoFisher Scientific, Catalog No: 14200-083) diluted in phosphate buffered saline containing 1 mg/ml glucose was added to each well and cells were incubated at 37° C. until a color change was visible in the wells containing no blasticidin. The fluorescence was determined at 560 excitation and 590 nm emission to assess relative cell metabolic activity, which is the net result of cell growth and cell killing in presence of the different blasticidin concentrations. The result was expressed as % viability relative to controls with no cells (0%) and cells treated with olfactory ligand only (100%).

`CC(=O)c1c(C)c([N+](=O)[O-])c(C(C)(C)C)c([N+](=O)[O-])c1C` [musk ketone] was tested, and the “blasticidin resistance in presence of odorant versus solvent control” value (HEK293T OR5AN1, odorant 10 μM, blasticidin 0.5-256 μg/ml, PrestoBlue viability day 4) was “increased resistance to blasticidin; also recorded: Enhanced blasticidin resistance”, the “difference in viability with versus without ligand” value (blasticidin at 32 μM (so in the source)) was ~10 fold and the “surviving cells (viability) in presence of ligand” value (blasticidin at 32 μM (so in the source), odorant 10 μM, relative to no cells (0%) and ligand only (100%)) was 75%. The “increase of blasticidin concentration reducing viability by 50% (EC50) in presence of ligand” value (versus absence of ligand) was > 50 fold.
